Laboratory results: patent publication US20230241088A1, “COMPOSITION FOR PREVENTING OR TREATING LUNG CANCER COMPRISING ORTHO-TOPOLIN RIBOSIDE AS ACTIVE INGREDIENT” (CHUNG-ANG UNIVERSITY INDUSTRY-ACADEMY COOPERATION FOUNDATION, priority 2022, published 2023)
Read-outs that look alike come from different tables or passages of the source.

Tests used:
HCC827 = test: MTT cell viability assay, HCC827; format: cell-based, Human; conditions: 48 hours
Method: Human NSCLC cell lines A549, H1437, H2087, H522, and HCC827 were obtained from the Korean Cell Line Bank (KCLB, Seoul, Korea). These cells were cultured in RPMI-1640 medium (Gibco, N.Y., USA) supplemented with 10% FBS (Gibco) and 1% penicillin-streptomycin (HyClone Laboratories, Logan, Utah, USA). All cell lines were cultured under standard conditions (5% CO2, humid environment, 37° C.). A549 cells were seeded at a density of 1×10^4 cells/well and H1437, H2087, H522, HCC827, and MRCS cells at a density of 2×10^4 cells/well in 96-well plates and were cultured until cells reach approximately 70-80% confluency. The NSCLC cells were treated with plant hormones for 48 hours. Stock solution of each plant hormone was diluted with culture medium, wherein concentrations of DMSO, water, methanol, and ethanol in the culture medium were below 1% (v/v). The half-maximal inhibitory concentration (IC50) was calculated using CompuSyn software (ComboSyn Inc., Paramus, N.J., USA).
The inhibitory effect of plant hormones and their derivatives was investigated on 5 NSCLC cell lines (A549, H1437, H2087, H522, and HCC827). The NSCLC cells were treated with ABA, Cor, ethephon, GR-24, IAA, KR, MJ, N6b, N6i, oTR, and SS-HCS at concentrations of 0.1, 0.5, 1, 5, 10, 50, and 100 μM. Cell viability and IC50 values for 48 hours were investigated by performing the MTT assay.

[1] = tested on: NSCLC cell lines (A549, H1437, H2087, H522, and HCC827); test: GC-MS and nanoESI-MS metabolite and lipid profiling of NSCLC cells; format: cell-based, Human
Method: The cells were seeded at a density of 2×10^5 cells/mL in a 6-well plate and treated with oTR (10 μM) for 48 hours. The cells were pooled from 3 wells in the 6-well plate and centrifuged at 1,000×g at 4° C. for 2 minutes. The cells were frozen in liquid nitrogen and stored at −70° C. until analysis. The cells were lysed by two freeze-thaw cycles using liquid nitrogen and 37° C. water bath. Protein concentrations were determined using the Bio-Rad protein assay kit (Thermo Scientific, Rockford, Ill.). Bovine serum albumin (BSA) was used as a standard for normalization. The cells were freeze-dried and stored at −70° C. until additional analysis.
(§1) To perform metabolite and lipid analyses of the extracted samples of NSCLC cells and xenograft tumor tissues, GC-MS and nanoESI-MS analyses were conducted according to a previously described method. For quality control (QC), the equal volume of mixture was taken from each sample to be analyzed.
(§2) Raw data files of the lipid analysis (*.raw) were converted into *.mzXML format using the Proteo Wizard MSConvert software. The metabolite and lipid mass spectra were converted using the Expressionist® MSX software (version 2013.0.39, Genedata, Basel, Switzerland) for data processing. The data obtained from NSCLC cells were divided by the peak intensity of the internal standard and total protein content for normalization. The data obtained from the NSCLC xenograft model were divided by the peak intensity of the internal standard for normalization. The data obtained thereby were used for fold-change analysis using the MetaboAnalyst (version 5.0; http://www.metaboanalyst.ca). SPSS software (version 26, IBM, Somers, N.Y.) was used for significance examination for the results, and identification was conducted by Student's t-test and Mann-Whitney test. All data were mean-centered and pretreated to Pareto scaling for principal component analysis (PCA) and orthogonal partial least-squares discriminant analysis (OPLS-DA), performed using the SIMCA-P software (version 15.0.2, Sartorius Stedim Data Analytics AB, Umea, Sweden). Cross validations and permutation tests (100 times) were performed to evaluate the goodness of fit value and predictability of the OPLS-DA model. Volcano plots were generated using the GraphPad Prism 9.0.
oTR-induced alterations of metabolic and lipidomic profiles were analyzed using 5 NSCLC cell lines (A549, H1437, H2087, H522, and HCC827) and xenograft tumor tissues by performing GC-MS and nanoESI-MS analyses. The relative changes in identified metabolites and intact lipid species are shown as fold-changes. […]

[2] = tested on: A549 cells tumor xenograft; conditions: for tumor volume compared to control group: after the second treatment (day 7)
Method: To evaluate the anticancer effect of oTR in tumor tissues, a tumor xenograft model was established by injecting 2.5×10^6 A549 cells into the flanks of nude mice (female, BALB/cSlc-nu/nu). After the tumor volume reached above 100 mm^3 after approximately 3 weeks, the mice were randomized into negative controls and experimental groups (5 mice were used per group). Mice were then injected with oTR solution into the tumor area twice a week for 3 weeks. oTR was dissolved in saline:DMSO (1:1, v/v), and 50 μL of oTR solution was injected into mice in a dose of 100 mg/kg or 150 mg/kg. […] Negative controls were injected with saline:DMSO (1:1, v/v) without oTR. Tumor volume, mouse body weight, and mouse survival were recorded twice a week before injecting oTR. Tumor length (a) and width (b) were measured using calipers and tumor volume (mm^3) was calculated by =(a×b^2)/2.
Tumor xenograft mice were treated with oTR at two doses (100 mg/kg and 150 mg/kg). The tumor volume was measured twice a week for 3 weeks to evaluate the therapeutic effects of the drug in vivo.

[3] = tested on: p-ERK, p-AKT, cleaved caspase-3, LC-III in A549 cells; test: Immunoblot analysis of cell lysates; format: cell-based, Human; conditions: NSCLC cells
Method: The immunoblot analysis was carried out according to a previously described method. A549 cells (4×10^5) were grown to approximately 70-80% confluency and treated with oTR (5, 10, and 50 μM) for 48 hours. The cell lysates and tissue lysates were prepared and subjected to SDS-PAGE for immunoblotting with the respective antibodies. Anti-caspase-3 (9662), anti-p-AKT (4058), and anti-AKT (9272) antibodies were purchased from Cell Signaling Technology (Danvers, Mass., USA). Anti-ERK1/ERK2 (MAB1576) and anti-p-ERK1/ERK2 (AF1018) were purchased from R&D Systems (Minneapolis, Minn., USA). Anti-LC-III (NB100-2331) antibody was purchased from Novus Biologicals (Littleton, Colo., USA). Anti-β-actin (sc-47778) and anti-GAPDH (sc-47724) antibody was purchased from Santa Cruz Biotechnology (Santa Cruz, Calif., USA).

xenograft tumor tissues = test: GC-MS and nanoESI-MS metabolite and lipid profiling of xenograft tumor tissues; format: in vivo, nude mice (female, BALB/cSlc-nu/nu)
Method: The tumor tissue was weighed above 25 mg, and 0.3 mL of ice-cold methanol containing 0.1% BHT was added, followed by homogenization for 1 minutes. Homogenized samples were centrifuged at 10,000×g for 15 minutes at 4° C. The supernatant corresponding to 10 mg of the tissue was used, and metabolites and lipids were extracted using modified Folch method.
as §1, §2
oTR-induced alterations of metabolic and lipidomic profiles were analyzed using 5 NSCLC cell lines (A549, H1437, H2087, H522, and HCC827) and xenograft tumor tissues by performing GC-MS and nanoESI-MS analyses. The relative changes in identified metabolites and intact lipid species are shown as fold-changes. Myo-inositol, amino acids (β-alanine, aspartate, serine, threonine, glutamate, glycine, proline, and tyrosine), organic acids (malate and lactate), pyrimidines (uracil and uridine), creatinine, hypoxanthine, and putrescine decreased in oTR-treated NSCLC cells compared to those in NSCLC cells. These metabolites were the outcomes of consistent and significant alterations in 3 NSCLC cell lines compared to those of respective controls.

[4] = both oTR groups (100 and 150 mg/kg)

## OC[C@H]1O[C@@H](n2cnc3c(NCc4ccccc4O)ncnc32)[C@H](O)[C@@H]1O [oTR, ortho topolin riboside]
HCC827
  IC50: 29.7 ± 2.56 µM
[1]; all NSCLC cell lines, oTR 10 μM, 48 hours
  lactate level: significantly decreased
[1]; oTR 10 μM, 48 hours, vs untreated NSCLC cells
  levels of myo-inositol, amino acids, organic acids (malate and lactate), pyrimidines (uracil and uridine), creatinine, hypoxanthine, putrescine: decreased
[1]; oTR-treated NSCLC cells
  PC, PE, and PS species and Cer 18:1/22:0 levels: increased
  levels of PG and PI species: decreased
[2]; 100 mg/kg vs 150 mg/kg
  dose dependence of oTR-induced changes in tumor volume: did not decrease in a dose-dependent manner
[2]; 100 mg/kg
  tumor volume compared to control group: significantly decreased
[2]; 150 mg/kg
  tumor volume compared to control group: significantly decreased
[2]; mouse, in vivo
  reduction of body weight relative to initial body weight: ≤ 5%
[3]; 50 μM oTR
  cleaved caspase-3: significantly increased
[3]; FIG. 6C
  level of LC-III, an autophagy marker: did not change
[3]; oTR 48 hours
  phosphorylated AKT (p-AKT): significantly decreased
  phosphorylated ERK1/2 (p-ERK): significantly decreased
Xenograft tumor tissues; 100 mg/kg and 150 mg/kg
  PC, PE, PG, and PI species levels: increase
Xenograft tumor tissues; 150 mg oTR-treated group vs control
  PS species levels: increased
Xenograft tumor tissues; 150 mg/kg group vs control
  level of aspartate, ascorbate, glucose, glutamate, ornithine, phenylalanine, proline, serine, threonine: significant reduction
Xenograft tumor tissues; [4]
  citrate, ornithine, and uridine levels: significantly decreased
  β-alanine, aminomalonate, glycerol, glycine, and uracil levels: increased
